# Laboratory results reported in paper PMC13184981, “Discovery and Development of a Potent LIMK2 Isoform-Specific Degrader” (ACS Chemical Biology, 2026).
# pEC50: −log10 of the molar value.
# Key:
# [1] = system: CFL1, CFL2 and DSTN phosphorylation; experiment: Phospho-proteomics; assay type: cell-based, human; conditions: HuCCT1, 500 nM, 6 h
# Experimental: Cells were lysed in SDS-lysis buffer (50 mM Tris, pH 8.5, 2% SDS, 10 mM TCEP, 40 mM chloroacetamide, protease inhibitor cocktail, phosphatase inhibitor) and boiled at 95 °C for 10 min. Proteins were precipitated using methanol-chloroform and resuspended in 8 M urea, 50 mM Tris, pH 8.5. Proteins were digested with 1:50 w/w LysC (Wako Chemicals, cleaves at the carboxylic side of lysine residue) and 1:100 w/w trypsin (Promega, Sequencing-grade) overnight at 37 °C after dilution to a final urea concentration of 1 M using 50 mM Tris pH 8.5. Digested peptides were then acidified (pH 2–3) using trifluoroacetic acid (TFA) and purified using C18 SepPak columns (Waters). […]
# Tryptic peptides were analyzed on an Orbitrap Lumos coupled to an easy nLC 1200 (ThermoFisher Scientific) using a 35 cm long, 75 μm ID fused-silica column packed in-house with 1.9 μm C18 particles (Reprosil pur, Dr. Maisch), and kept at 50 °C using an integrated column oven (Sonation). […] MS2 scans for quantification were performed on the 10 most intense MS ions with an isolation window of 0.7 Th. Ions were fragmented using HCD with a normalized collision energy of 35% and analyzed in the Orbitrap with a resolution of 50,000 at m/z 200, scan range of 100–500 m/z, AGC target value of 1 × 10^5, and a maximum injection time of 86 ms. […]
# MS raw data were analyzed using MaxQuant (2.4.2.0). […]
# [2] = target: T1, NanoLuc-tagged LIMK1 and Halo-tagged CRBN (Homo sapiens, UniProt P53667+Q96SW2); experiment: NanoBRET cellular ternary complex formation, LIMK1; assay type: cell-based
# T1 construct: CRBN vector in-house NV3391; host or cells: HEK293T
# From the text: Next, we assessed ternary complex formation for the parent and lead PROTACs in live cells using the NanoBRET proximity assay. A ternary complex assay system was established using NanoLuc-tagged LIMKs and Halo-tagged CRBN. Formation of the ternary complex upon PROTAC addition was quantified by measuring the BRET signal. […] However, they differed in the strength of the ternary complex. […] We also confirmed the differences in ternary complex strength using the orthogonal PROXICapture approach, in which MOLT-4 cell lysate was passed over immobilized FLAG-tagged CRBN preincubated with THNAN69.
# Gene encoding LIMK1 (Promega, NV3391) and LIMK2 (Promega, NV1531) proteins cloned in frame with NanoLuc fusion tag at the C-Terminus and gene encoding cereblon (generated in-house) cloned in frame with Halo Tag at the N-Terminus, were used to measure the end-point ternary complex formation between the PROTACs and LIMK1 and LIMK2, respectively. […] To measure BRET, NanoBRET NanoGlo Substrate + Extracellular NanoLuc Inhibitor (Promega, N2162) was added to cells as per the manufacturer’s protocol, and filtered luminescence was measured on a PHERAstar FSX plate reader (BMG Labtech) equipped with a luminescence filter pair (450 nm BP filter (donor) and 610 nm LP filter (acceptor)). […]
# T1 sequence (P53667 whole entry): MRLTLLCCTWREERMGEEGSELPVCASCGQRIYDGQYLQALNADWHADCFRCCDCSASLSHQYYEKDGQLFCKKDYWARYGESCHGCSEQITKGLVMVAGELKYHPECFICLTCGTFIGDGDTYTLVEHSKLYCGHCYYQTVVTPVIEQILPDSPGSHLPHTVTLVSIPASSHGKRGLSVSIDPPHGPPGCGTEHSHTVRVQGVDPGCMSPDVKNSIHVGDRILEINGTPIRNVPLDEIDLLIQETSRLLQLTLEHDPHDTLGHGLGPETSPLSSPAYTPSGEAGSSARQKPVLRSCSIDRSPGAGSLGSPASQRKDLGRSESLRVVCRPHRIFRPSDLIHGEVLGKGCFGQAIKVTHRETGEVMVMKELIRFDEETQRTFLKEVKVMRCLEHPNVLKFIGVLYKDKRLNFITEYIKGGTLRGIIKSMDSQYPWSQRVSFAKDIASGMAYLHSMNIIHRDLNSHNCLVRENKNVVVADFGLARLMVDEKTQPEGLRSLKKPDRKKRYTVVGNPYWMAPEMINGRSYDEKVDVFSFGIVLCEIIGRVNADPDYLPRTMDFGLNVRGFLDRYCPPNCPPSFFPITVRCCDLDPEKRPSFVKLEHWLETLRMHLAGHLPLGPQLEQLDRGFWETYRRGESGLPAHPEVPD
# T1 sequence (Q96SW2 whole entry): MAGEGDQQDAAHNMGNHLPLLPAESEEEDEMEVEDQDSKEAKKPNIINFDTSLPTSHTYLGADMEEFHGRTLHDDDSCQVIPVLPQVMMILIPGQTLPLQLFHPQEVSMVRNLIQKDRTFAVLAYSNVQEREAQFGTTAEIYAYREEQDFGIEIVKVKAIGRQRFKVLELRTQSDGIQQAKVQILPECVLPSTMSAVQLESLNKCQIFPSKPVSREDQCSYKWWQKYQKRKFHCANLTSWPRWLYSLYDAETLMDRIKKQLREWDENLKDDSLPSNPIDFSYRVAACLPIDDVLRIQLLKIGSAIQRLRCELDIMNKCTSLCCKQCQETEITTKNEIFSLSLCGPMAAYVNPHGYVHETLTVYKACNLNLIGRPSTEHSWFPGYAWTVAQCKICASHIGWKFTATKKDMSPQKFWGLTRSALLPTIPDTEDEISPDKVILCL
# T1 sequence (Q16531 whole entry partner): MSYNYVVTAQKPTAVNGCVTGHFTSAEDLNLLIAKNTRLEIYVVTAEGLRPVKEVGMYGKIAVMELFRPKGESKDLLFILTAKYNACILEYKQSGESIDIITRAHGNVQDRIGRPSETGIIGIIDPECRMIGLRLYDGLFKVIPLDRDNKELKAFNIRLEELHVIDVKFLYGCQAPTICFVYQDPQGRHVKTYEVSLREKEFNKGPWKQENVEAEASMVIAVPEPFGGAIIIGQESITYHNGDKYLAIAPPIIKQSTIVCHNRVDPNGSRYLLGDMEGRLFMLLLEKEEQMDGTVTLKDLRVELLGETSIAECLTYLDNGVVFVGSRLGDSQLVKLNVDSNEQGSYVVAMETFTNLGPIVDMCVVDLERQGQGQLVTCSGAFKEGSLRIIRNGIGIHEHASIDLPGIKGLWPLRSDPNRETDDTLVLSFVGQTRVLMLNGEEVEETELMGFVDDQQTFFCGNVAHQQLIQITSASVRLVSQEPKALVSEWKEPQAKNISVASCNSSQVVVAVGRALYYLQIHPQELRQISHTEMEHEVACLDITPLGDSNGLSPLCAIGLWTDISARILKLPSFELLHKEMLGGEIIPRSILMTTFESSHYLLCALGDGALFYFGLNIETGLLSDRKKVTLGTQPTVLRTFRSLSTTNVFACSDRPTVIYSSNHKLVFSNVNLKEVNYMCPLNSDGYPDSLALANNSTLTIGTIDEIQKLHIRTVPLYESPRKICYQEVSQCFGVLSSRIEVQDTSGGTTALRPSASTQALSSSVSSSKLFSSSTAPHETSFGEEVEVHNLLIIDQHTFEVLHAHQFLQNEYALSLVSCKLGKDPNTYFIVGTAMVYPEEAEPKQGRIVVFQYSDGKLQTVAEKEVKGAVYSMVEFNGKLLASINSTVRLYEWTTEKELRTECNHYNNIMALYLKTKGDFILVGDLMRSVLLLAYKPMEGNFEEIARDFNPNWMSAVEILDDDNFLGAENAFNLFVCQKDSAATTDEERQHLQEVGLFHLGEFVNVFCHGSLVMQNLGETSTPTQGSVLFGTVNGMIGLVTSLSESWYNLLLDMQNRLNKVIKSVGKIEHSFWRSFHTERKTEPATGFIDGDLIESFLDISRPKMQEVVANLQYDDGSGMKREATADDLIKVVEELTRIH
structure (smiles),measurement,setting,value
Cc1c(OCc2cn(CCCCC(=O)Nc3ncc(-c4cc(C(F)F)nn4-c4c(Cl)cccc4Cl)s3)nn2)cccc1N1CCC(=O)NC1=O [22b],"phosphorylation of CFL1, CFL2 and DSTN",[1],no significant change in phosphorylation
same,pEC50,[2],6.52
